Laboratory results: US20250019350A1, “SYNTHESIS OF THE PROSTATE SPECIFIC MEMBRANE ANTIGEN (PSMA) RADIOLABELED INHIBITOR [18F]DCFPYL” (Progenics Pharmaceuticals, Inc, priority 2023, published 2025)

Experiment: Radiolysis / stability of [18F]DCFPyL over time by HPLC with radiodetection (RCP, free 18F, radioactive impurities)
Type: physicochemical
Conditions: for RT 4.8 radioactive impurity: MPA = 0.25% of main peak; for RCP: T = 10 hour; for 18F-DCFPyL / Free 18F: forced radiolysis in ethanol, 364.5 mCi/mL; for RT 5.0 min / RT 5.9 min / RT 12.0 min / RT 12.2 min: radioactive impurity
Protocol: Those of ordinary skill in the art will be aware of techniques and systems for determining the radiochemical purity of a composition. In some cases, the radiochemical purity is determined using an HPLC associated with a radio-detector. Generally, the radiochemical purity is determined under ambient conditions (e.g., ambient temperature, ambient humidity, ambient light, etc.), such as in samples stored under such conditions.
Stability was assessed using reverse phase HPLC on a C18 column with a phosphate buffer/acetonitrile gradient mobile phase, and the elution profile was monitored using both UV and radiochemical detectors. Samples were analyzed either by direct injection onto the HPLC, dilution and injection or including the addition of tetraethylammonium fluoride (TEAF) into the sample before injection.
Known amounts of free ^18F either alone or spiked with TEAF were injected onto the analytic column and the eluent from the column collected over the course of a chromatogram and assaying the radioactivity using a Capintec. […] Adding TEAF into the analytic samples was incorporated into subsequent studies examining potential radiolysis of [^18F]DCFPyL to overcome some of the limitations of free ^18F quantification.
Analytical HPLC method was used. The method employs UV detection at 264 nm for chemical impurities, and an Eckert & Ziegler model B-FC-1000 gamma detector for radiochemical assays.

[1] = T = 6 hr, 5 mg/mL ascorbic acid pH 5.8, 20% ethanol, 99.0 mCi/mL at EOS
[2] = T = 6 hr, 50 mg/mL ascorbic acid pH 5.8, 20% ethanol, 139.7 mCi/mL at EOS
[3] = T = 6 hr, 100% ethanol, 325 mCi/mL at EOS
[4] = T = 7 hr, 100% ethanol, 325 mCi/mL at EOS
[5] = T = 8 hr, 100% ethanol, 325 mCi/mL at EOS
[6] = T = 9 hr, 100% ethanol, 325 mCi/mL at EOS
[7] = T = 10 hr, +TEAF added to sample before HPLC, 100% ethanol, 325 mCi/mL at EOS
[8] = T = 10 hr, 1 mg/mL ascorbic acid pH 5.8, 20% ethanol, 107.0 mCi/mL at EOS
[9] = T = 10 hr, 5 mg/mL ascorbic acid pH 5.8, 20% ethanol, 99.0 mCi/mL at EOS
[10] = T = 10 hr, 50 mg/mL ascorbic acid pH 5.8, 20% ethanol, 139.7 mCi/mL at EOS
[11] = T = 10 h, TEAF added (44 mg/mL) to sharpen the 18F peak
[12] = 147 mCi/mL in 0.9% Sodium Chloride, USP, T = 0 h
[13] = 147 mCi/mL in 0.9% Sodium Chloride, USP, T = 0.5 h
[14] = 147 mCi/mL in 0.9% Sodium Chloride, USP, T = 1.0 h
[15] = 147 mCi/mL in 0.9% Sodium Chloride, USP, T = 1.5 h
[16] = 147 mCi/mL in 0.9% Sodium Chloride, USP, T = 2.0 h
[17] = 147 mCi/mL in 0.9% Sodium Chloride, USP, T = 2.5 h
[18] = 147 mCi/mL in 0.9% Sodium Chloride, USP, T = 3.0 h
[19] = 147 mCi/mL in 0.9% Sodium Chloride, USP, T = 3.5 h
[20] = 147 mCi/mL in 0.9% Sodium Chloride, USP, T = 4.0 h
[21] = 256 mCi/mL in ethanol, T = 1.0 h
[22] = 256 mCi/mL in ethanol, T = 1.5 h
[23] = 256 mCi/mL in ethanol, T = 2.0 h
[24] = 256 mCi/mL in ethanol, T = 2.5 h
[25] = 256 mCi/mL in ethanol, T = 3.0 h
[26] = 256 mCi/mL in ethanol, T = 3.5 h
[27] = 256 mCi/mL in ethanol, T = 4.0 h

O=C(O)CC[C@H](NC(=O)N[C@@H](CCCCNC(=O)c1ccc([18F])nc1)C(=O)O)C(=O)O [Lot 18F-DCFPyL, 2-(3-{1-carboxy-5-[(6-[18F]fluoro-pyridine-3-carbonyl)-amino]-pentyl}ureido)-pentanedioic acid]
Free F-18 (T = 6 hr, 1 mg/mL ascorbic acid pH 5.8, 20% ethanol, 107.0 mCi/mL at EOS): 1.57% | Free F-18 (T = 6 hr, 1 mg/mL sodium ascorbate, 20% ethanol, 111.5 mCi/mL at EOS): 2.81% | 18F-DCFPyL (% RCP) [1]: 99.09% | Free F-18 [1]: 0.91% | Free F-18 (T = 6 hr, 5 mg/mL sodium ascorbate, 20% ethanol, 114.6 mCi/mL at EOS): 1.45% | 18F-DCFPyL (% RCP) [2]: 99.64% | Free F-18 [2]: 0.36% | RT 4.8 radioactive impurity [2]: <MPA | 18F-DCFPyL (RCP) [3]: 96.73% | Free F-18 [3]: 4.27% | 18F-DCFPyL (RCP) [4]: 96.42% | Free F-18 [4]: 4.58% | 18F-DCFPyL (RCP) [5]: 95.76% | Free F-18 [5]: 4.24% | 18F-DCFPyL (RCP) [6]: 95.31% | Free F-18 [6]: 4.69% | RCP (120 mCi/mL, ascorbic acid 5.6 mg/mL pH 6.0): 96.9% | RCP (127 mCi/mL, ascorbic acid 2.8 mg/mL pH 6.0): 96.1% | RCP (166 mCi/mL, ascorbic acid 5.6 mg/mL pH 6.0): 95.5% | 18F-DCFPyL (RCP) [7]: 92.7% | Free F-18 [7]: 7.35% | Free F-18 (T = 10 hr, +TEAF added to sample before HPLC, 100% ethanol, 325 mCi/mL at EOS, listed as 18F DCFPyL): 7.4% | Free F-18 (T = 10 hr, no TEAF, 100% ethanol, 325 mCi/mL at EOS): 4.55% | Free F-18 (T = 10 hr, no TEAF, 100% ethanol, 325 mCi/mL at EOS, listed as 18F DCFPyL): 4.6% | Free F-18 (T = 10 hr, 0.5 mg/mL ascorbic acid pH 5.8, 20% ethanol, 105.8 mCi/mL at EOS): 1.42% | 18F-DCFPyL (% RCP) [8]: 98.36% | Free F-18 [8]: 1.64% | Free F-18 (T = 10 hr, 1 mg/mL sodium ascorbate, 20% ethanol, 111.5 mCi/mL at EOS): 2.74% | 18F-DCFPyL (% RCP) [9]: 99.05% | Free F-18 [9]: 0.95% | Free F-18 (T = 10 hr, 5 mg/mL sodium ascorbate, 20% ethanol, 114.6 mCi/mL at EOS): 1.51% | 18F-DCFPyL (% RCP) [10]: 99.34% | Free F-18 [10]: 0.30% | RT 4.8 radioactive impurity [10]: 0.36% | 18F-DCFPyL (RCP) (T = 10 hr, 100% ethanol, 325 mCi/mL at EOS): 95.45% | 18F-DCFPyL (RCP) (T = 10 hr, 100% ethanol, 325 mCi/mL at EOS, listed as 18F DCFPyL): 95.5% | 18F-DCFPyL (T = 0 h): 98.37 area % | Free 18F (T = 0 h): 1.63 area % | 18F-DCFPyL (T = 1 h): 96.66 area % | Free 18F (T = 1 h): 3.34 area % | 18F-DCFPyL (T = 2 h): 96.38 area % | Free 18F (T = 2 h): 3.62 area % | 18F-DCFPyL (T = 3 h): 95.71 area % | Free 18F (T = 3 h): 4.29 area % | 18F-DCFPyL (T = 4 h): 95.60 area % | Free 18F (T = 4 h): 4.40 area % | 18F-DCFPyL (T = 5 h): 95.58 area % | Free 18F (T = 5 h): 4.42 area % | 18F-DCFPyL (T = 6 h): 95.73 area % | Free 18F (T = 6 h): 4.27 area % | 18F-DCFPyL (T = 7 h): 95.42 area % | Free 18F (T = 7 h): 4.58 area % | 18F-DCFPyL (T = 8 h): 95.76 area % | Free 18F (T = 8 h): 4.24 area % | 18F-DCFPyL (T = 9 h): 95.31 area % | Free 18F (T = 9 h): 4.69 area % | 18F-DCFPyL (T = 10 h): 95.45 area % | Free 18F (T = 10 h): 4.55 area % | 18F-DCFPyL [11]: 92.65 area % | Free 18F [11]: 7.35 area % | two impurities eluting before the 18F-DCFPyL peak, upper end of range (<LLQ to ...) (over 4 hours, 110 mCi/mL lot, 50 mg/mL pH 5.8 ascorbic acid, 24% (w/w) ethanol): ≤ 0.37% | impurity eluting before the 18F-DCFPyL peak, upper end of range (<LLQ to ...) (over 4 hours, 256 mCi/mL lot, 100 mg/mL pH 2.0 ascorbic acid in collection vial): ≤ 0.35% | RT 5.0 min (110 mCi/mL in 50 mg/mL pH 5.8 ascorbic acid, T = 0 h): 0.27 area % | RT 5.0 min (110 mCi/mL in 50 mg/mL pH 5.8 ascorbic acid, T = 0.5 h): 0.28 area % | RT 5.0 min (110 mCi/mL in 50 mg/mL pH 5.8 ascorbic acid, T = 1.0 h): 0.26 area % | RT 5.0 min (110 mCi/mL in 50 mg/mL pH 5.8 ascorbic acid, T = 1.5 h): 0.34 area % | RT 5.0 min (110 mCi/mL in 50 mg/mL pH 5.8 ascorbic acid, T = 2.0 h): 0.24 area % | RT 5.0 min (110 mCi/mL in 50 mg/mL pH 5.8 ascorbic acid, T = 2.5 h): 0.34 area % | RT 5.0 min (110 mCi/mL in 50 mg/mL pH 5.8 ascorbic acid, T = 3.0 h): 0.35 area % | RT 5.0 min (110 mCi/mL in 50 mg/mL pH 5.8 ascorbic acid, T = 3.5 h): 0.31 area % | RT 5.0 min (110 mCi/mL in 50 mg/mL pH 5.8 ascorbic acid, T = 4.0 h): 0.31 area % | RT 5.0 min [12]: 0.50 area % | RT 5.9 min [12]: 0.64 area % | RT 5.0 min [13]: 0.65 area % | RT 5.9 min [13]: 0.97 area % | RT 5.0 min [14]: 0.48 area % | RT 5.9 min [14]: 1.11 area % | RT 5.0 min [15]: 0.61 area % | RT 5.9 min [15]: 1.03 area % | RT 5.0 min [16]: 0.77 area % | RT 5.9 min [16]: 1.05 area % | RT 5.0 min [17]: 0.62 area % | RT 5.9 min [17]: 0.93 area % | RT 5.0 min [18]: 0.70 area % | RT 5.9 min [18]: 0.87 area % | RT 5.0 min [19]: 0.59 area % | RT 5.9 min [19]: 0.95 area % | RT 5.0 min [20]: 0.71 area % | RT 5.9 min [20]: 0.96 area % | RT 5.0 min [21]: 0.35 area % | RT 12.0 min [21]: 0.35 area % | RT 12.2 min [21]: 0.31 area % | RT 5.0 min [22]: 0.28 area % | RT 12.0 min [22]: 0.46 area % | RT 12.2 min [22]: 0.37 area % | RT 5.0 min [23]: 0.50 area % | RT 12.0 min [23]: 0.52 area % | RT 12.2 min [23]: 0.47 area % | RT 12.0 min [24]: 0.52 area % | RT 12.2 min [24]: 0.46 area % | RT 12.0 min [25]: 0.69 area % | RT 12.2 min [25]: 0.57 area % | RT 12.0 min [26]: 0.87 area % | RT 12.2 min [26]: 0.75 area % | RT 12.0 min [27]: 0.96 area % | RT 12.2 min [27]: 0.69 area %
